In US20140342379A1, “Means and Methods for Assessing Gonadal Toxicity” (BASF SE, priority 2011, published 2014):
Marks after values point to notes of the source that are not given here. Each block holds one compound with its values, some of them ahead of it.

Tested on: male rats
Assay: 28-day repeated dose study, plasma metabolite profiling (GC-MS, LC-MS), male rats
Format: in vivo, rat
Text: Drinking water was also offered ad libitum.

18-Hydroxy-11-deoxycorticosterone, plasma, treatment ratio versus control (day 7): 0.49*
Alanine, plasma, treatment ratio versus control (day 7): 0.76*
Arachidonic acid (C20:cis[5,8,11,14]4), plasma, treatment ratio versus control (day 7): 0.76*
Coenzyme Q9, plasma, treatment ratio versus control (day 7): 0.72*
Creatinine, plasma, treatment ratio versus control (day 7): 1.23*
DAG (C18:1, C18:2), plasma, treatment ratio versus control (day 7): 0.81
Fructose-6-phosphate, plasma, treatment ratio versus control (day 7): 0.76
Galactose, lipid fraction, plasma, treatment ratio versus control (day 7): 0.81*
Glucosamine, plasma, treatment ratio versus control (day 7): 1
Glucose, plasma, treatment ratio versus control (day 7): 0.86*
Glycerol, polar fraction, plasma, treatment ratio versus control (day 7): 0.75*
Heneicosanoic acid (C21:0), plasma, treatment ratio versus control (day 7): 0.92
Lactate, plasma, treatment ratio versus control (day 7): 0.68
Linolenic acid (C18:cis[9,12,15]3), plasma, treatment ratio versus control (day 7): 0.59*
Lysine, plasma, treatment ratio versus control (day 7): 0.81*
Malate, plasma, treatment ratio versus control (day 7): 0.65*
Oleic acid (C18:cis[9]1), plasma, treatment ratio versus control (day 7): 0.85*
Palmitoleic acid (C16:cis[9]1), plasma, treatment ratio versus control (day 7): 0.81
Phenylalanine, plasma, treatment ratio versus control (day 7): 0.96
Phosphate (inorganic and organic phosphates), plasma, treatment ratio versus control (day 7): 0.9*
Pyruvate, plasma, treatment ratio versus control (day 7): 0.84
Spermidine, plasma, treatment ratio versus control (day 7): 0.77*
TAG (C16:0,C16:1), plasma, treatment ratio versus control (day 7): 0.67*
Uracil, plasma, treatment ratio versus control (day 7): 0.67*
myo-Inositol, plasma, treatment ratio versus control (day 7): 0.85*
trans-4-Hydroxyproline, plasma, treatment ratio versus control (day 7): 0.73*
18-Hydroxy-11-deoxycorticosterone, plasma, treatment ratio versus control (day 14): 0.59*
Alanine, plasma, treatment ratio versus control (day 14): 0.84*
Arachidonic acid (C20:cis[5,8,11,14]4), plasma, treatment ratio versus control (day 14): 0.83*
Coenzyme Q9, plasma, treatment ratio versus control (day 14): 0.67*
Creatinine, plasma, treatment ratio versus control (day 14): 1.45*
DAG (C18:1, C18:2), plasma, treatment ratio versus control (day 14): 0.74*
Fructose-6-phosphate, plasma, treatment ratio versus control (day 14): 1.08
Galactose, lipid fraction, plasma, treatment ratio versus control (day 14): 1
Glucosamine, plasma, treatment ratio versus control (day 14): 1.15
Glucose, plasma, treatment ratio versus control (day 14): 0.88*
Glycerol, polar fraction, plasma, treatment ratio versus control (day 14): 0.84*
Heneicosanoic acid (C21:0), plasma, treatment ratio versus control (day 14): 0.87*
Lactate, plasma, treatment ratio versus control (day 14): 0.69*
Linolenic acid (C18:cis[9,12,15]3), plasma, treatment ratio versus control (day 14): 0.57*
Lysine, plasma, treatment ratio versus control (day 14): 0.97
Malate, plasma, treatment ratio versus control (day 14): 0.8*
Oleic acid (C18:cis[9]1), plasma, treatment ratio versus control (day 14): 0.82*
Palmitoleic acid (C16:cis[9]1), plasma, treatment ratio versus control (day 14): 0.77*
Phenylalanine, plasma, treatment ratio versus control (day 14): 0.96*
Phosphate (inorganic and organic phosphates), plasma, treatment ratio versus control (day 14): 0.89*
Pyruvate, plasma, treatment ratio versus control (day 14): 0.69*
Spermidine, plasma, treatment ratio versus control (day 14): 0.69*
TAG (C16:0,C16:1), plasma, treatment ratio versus control (day 14): 0.38*
Uracil, plasma, treatment ratio versus control (day 14): 0.67*
myo-Inositol, plasma, treatment ratio versus control (day 14): 0.97
trans-4-Hydroxyproline, plasma, treatment ratio versus control (day 14): 0.75*
18-Hydroxy-11-deoxycorticosterone, plasma, treatment ratio versus control (day 28): 0.58
Alanine, plasma, treatment ratio versus control (day 28): 0.92*
Arachidonic acid (C20:cis[5,8,11,14]4), plasma, treatment ratio versus control (day 28): 0.97
Coenzyme Q9, plasma, treatment ratio versus control (day 28): 0.73*
Creatinine, plasma, treatment ratio versus control (day 28): 1.65*
DAG (C18:1, C18:2), plasma, treatment ratio versus control (day 28): 0.67
Fructose-6-phosphate, plasma, treatment ratio versus control (day 28): 0.83*
Galactose, lipid fraction, plasma, treatment ratio versus control (day 28): 1.15
Glucosamine, plasma, treatment ratio versus control (day 28): 0.84
Glucose, plasma, treatment ratio versus control (day 28): 0.87*
Glycerol, polar fraction, plasma, treatment ratio versus control (day 28): 0.79*
Heneicosanoic acid (C21:0), plasma, treatment ratio versus control (day 28): 1.08
Lactate, plasma, treatment ratio versus control (day 28): 0.77*
Linolenic acid (C18:cis[9,12,15]3), plasma, treatment ratio versus control (day 28): 0.53*
Lysine, plasma, treatment ratio versus control (day 28): 0.88*
Malate, plasma, treatment ratio versus control (day 28): 0.69*
Oleic acid (C18:cis[9]1), plasma, treatment ratio versus control (day 28): 0.8*
Palmitoleic acid (C16:cis[9]1), plasma, treatment ratio versus control (day 28): 0.88*
Phenylalanine, plasma, treatment ratio versus control (day 28): 0.93*
Phosphate (inorganic and organic phosphates), plasma, treatment ratio versus control (day 28): 1.02
Pyruvate, plasma, treatment ratio versus control (day 28): 0.69*
Spermidine, plasma, treatment ratio versus control (day 28): 0.79*
TAG (C16:0,C16:1), plasma, treatment ratio versus control (day 28): 0.71*
Uracil, plasma, treatment ratio versus control (day 28): 0.77*
myo-Inositol, plasma, treatment ratio versus control (day 28): 0.91*
trans-4-Hydroxyproline, plasma, treatment ratio versus control (day 28): 0.81*
SMILES: Cc1ncc[nH]1 [2-Methylimidazole]

3-Hydroxybutyrate, plasma, treatment ratio versus control (day 7): 0.71
3-O-Methylsphingosine (d18:1), plasma, treatment ratio versus control (day 7): 0.06
Campesterol, plasma, treatment ratio versus control (day 7): 0.08
Cholesterol, plasma, treatment ratio versus control (day 7): 0.05
Coenzyme Q9, plasma, treatment ratio versus control (day 7): 0.09*
Coenzyme Q10, plasma, treatment ratio versus control (day 7): 0.09*
Glutamine, plasma, treatment ratio versus control (day 7): 0.84
Histidine, plasma, treatment ratio versus control (day 7): 2.33*
Lysine, plasma, treatment ratio versus control (day 7): 1.47
Palmitoleic acid (C16:cis[9]1), plasma, treatment ratio versus control (day 7): 0.2
Stearic acid (C18:0), plasma, treatment ratio versus control (day 7): 0.18
Threonine, plasma, treatment ratio versus control (day 7): 1.44*
erythro-Sphingosine, plasma, treatment ratio versus control (day 7): 0.03
3-Hydroxybutyrate, plasma, treatment ratio versus control (day 14): 0.23*
3-O-Methylsphingosine (d18:1), plasma, treatment ratio versus control (day 14): 0.35*
Campesterol, plasma, treatment ratio versus control (day 14): 0.6*
Cholesterol, plasma, treatment ratio versus control (day 14): 0.57*
Coenzyme Q9, plasma, treatment ratio versus control (day 14): 0.86
Coenzyme Q10, plasma, treatment ratio versus control (day 14): 0.36*
Glutamine, plasma, treatment ratio versus control (day 14): 0.91
Histidine, plasma, treatment ratio versus control (day 14): 2.16*
Lignoceric acid (C24:0), plasma, treatment ratio versus control (day 14): 0.47*
Lysine, plasma, treatment ratio versus control (day 14): 1.4*
Palmitoleic acid (C16:cis[9]1), plasma, treatment ratio versus control (day 14): 1.28
Stearic acid (C18:0), plasma, treatment ratio versus control (day 14): 0.67*
Threonine, plasma, treatment ratio versus control (day 14): 1.85*
erythro-Sphingosine, plasma, treatment ratio versus control (day 14): 0.45*
SMILES: C#CC1(O)CCC2C3CCc4cc(O)ccc4C3CCC21C (stereo not drawn) [17-alpha-Ethynylestradiol, 17-ethynyl-13-methyl-7,8,9,11,12,13,14,15,16,17-decahydro-6H-cyclopenta[a]phenanthrene-3,17-diol]
